# According to patent EP3057951B1, “METHYLENE LINKED QUINOLINYL MODULATORS OF ROR-GAMMA-T” (Janssen Pharmaceutica NV, priority 2013, dated 2015):
# Several values for one entry are separate records, joined by “and”; a condition that tells them apart may be missing. Identical values can stand only once. Counter-ions that a name gives are not always drawn. Like-named read-outs stand apart in the source and are kept apart here.
# Assays:
# [1] = biological target: T1, wild type human RORγt LBD (Homo sapiens, UniProt P51449); test: RORγt (LBD) Reporter Assay (GAL4-luciferase, HEK293T cells); assay type: cell-based; conditions: for inhibition at 6 µM: HEK-293T, read-out: RORγt (LBD) Reporter Assay, % inhibition @ 6 µM, 6 µM compound concentration; for RORγt (LBD) Reporter Assay, % inhibition @ 6 µM: 6 µM compound concentration
# T1 construct: expressed in transfected cells; host or cells: HEK293T
# T1 sequence (P51449 258-518): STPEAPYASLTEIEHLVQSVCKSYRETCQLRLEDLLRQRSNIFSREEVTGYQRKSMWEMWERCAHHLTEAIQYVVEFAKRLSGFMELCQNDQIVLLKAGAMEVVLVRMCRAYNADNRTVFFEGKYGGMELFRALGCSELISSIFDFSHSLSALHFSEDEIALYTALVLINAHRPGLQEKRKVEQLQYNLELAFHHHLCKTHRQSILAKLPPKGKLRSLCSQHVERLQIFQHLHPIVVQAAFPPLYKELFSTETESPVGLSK
# [2] = biological target: T2, wild type human RORγt ligand binding domain (RORyt LBD) (Homo sapiens, UniProt P51449); test: RORγt ThermoFluor assay (thermal shift, binding affinity KD)
# T2 construct: His-tag (N); TurboTEV protease cleavage site (ENLYFQG) (N); made in house; host or cells: E. coli (pHIS1, modified pET vector)
# T2 sequence (P51449 258-518): T1 sequence (P51449 258-518)
# [3] = HEK293T cells, value after the comma with ∼, > or < could not be included in the average
Compound,"IC50 [1, 3]",inhibition at 6 µM [1] [%],Kd [2] [nM],"RORγt (LBD) Reporter Assay, % inhibition @ 6 µM ([1]; 6 µM) [%]","RORγt (LBD) Reporter Assay, % inhibition @ 6 µM ([1]; HEK293T cells, 6 µM) [%]",IC50 ([1]; HEK293T cells) [nM],"RORγt (LBD) Reporter Assay, % inhibition @ 6 µM [1] [%]",inhibition at 6 µM ([1]; HEK293T cells) [%]
"COc1nc2ccc(C(O)(c3ccc(C)nc3C)c3cnc(C)n3C)cc2c(Cl)c1Cc1ccc(C(F)(F)F)cc1 (racemic) [Example 57a, (4-Chloro-2-methoxy-3-(4-(trifluoromethyl)benzyl)quinolin-6-yl)(1,2-dimethyl-1H-imidazol-5-yl)(2,6-dimethylpyridin-3-yl)methanol]",22 nM,100,0.03,–,–,–,–,–
"COc1nc2ccc(C(O)(c3ccc(C#N)cc3)c3cncn3C)cc2c(C#N)c1Cc1ccc(-n2cncn2)cc1 (single isomer, unassigned) [Example 15b, 3-(4-(1H-1,2,4-Triazol-1-yl)benzyl)-6-((4-cyanophenyl)(hydroxy)(1-methyl-1H-imidazol-5-yl)methyl)-2-methoxyquinoline-4-carbonitrile]",410 nM,99,140,–,–,–,–,–
"COc1nc2ccc(C(O)(c3ccccc3)C3CCN(C(C)=O)CC3)cc2c(Cl)c1Cc1ccc(C(F)(F)F)cc1 (single isomer, unassigned) [Example 69c, 1-(4-((4-Chloro-2-methoxy-3-(4-(trifluoromethyl)benzyl)quinolin-6-yl)(hydroxy)(phenyl)methyl)piperidin-1-yl)ethanone]",69 nM,–,35,99,–,–,–,–
"CCc1nc2ccc(C(O)(c3ccc(C)nc3C)c3cnnn3C)cc2c(Cl)c1Cc1ccc(C(F)(F)F)cc1 (stereo not drawn) [Example 23a, (4-Chloro-2-ethyl-3-(4-(trifluoromethyl)benzyl)quinolin-6-yl)(2,6-dimethylpyridin-3-yl)(1-methyl-1H-1,2,3-triazol-5-yl)methanol]",18 nM,99,0.14,–,–,–,–,–
"COc1nc2ccc(C(O)(c3ncccn3)c3cncn3C)cc2c(Cl)c1Cc1ccc(-n2cccn2)cc1 (single isomer, unassigned) [Example 131b, {4-Chloro-2-methoxy-3-[4-(1H-pyrazol-1-yl)benzyl]quinolin-6-yl}(1-methyl-1H-imidazol-5-yl)pyrimidin-2-ylmethanol]",–,–,9000,–,59,~6000,–,–
"COc1nc2ccc(C(O)(c3cnnn3C)C3CCN(C(C)=O)CC3)cc2c(Cl)c1Cc1ccc(C(F)(F)F)cc1 (racemic) [Example 74a, 1-(4-((4-Chloro-2-methoxy-3-(4-(trifluoromethyl)benzyl)quinolin-6-yl)(hydroxy)(1-methyl-1H-1,2,3-triazol-5-yl)methyl)piperidin-1-yl)ethanone]",~10 nM,98,3.1,–,–,–,–,–
"Cn1cncc1C(O)(c1ccc(C(F)(F)F)nc1)c1ccc2nc(C(F)(F)F)c(Cc3ccccc3)c(C#N)c2c1 (stereo not drawn) [Example 108a, 3-Benzyl-6-(hydroxy(1-methyl-1H-imidazol-5-yl)(6-(trifluoromethyl)pyridin-3-yl)methyl)-2-(trifluoromethyl)quinoline-4-carbonitrile•TFA]",30 nM,90,4.4,–,–,–,–,–
COc1nc2ccc(C(O)(c3cnnn3C)c3cnc(C)n3C)cc2c(Cl)c1Cc1ccc(F)cc1 (racemic) [Example 65a],9.9 nM,74,0.19,–,–,–,–,–
"Cn1cncc1C(O)(c1ccc2nc(C(F)(F)F)c(Cc3ccccc3)c(C#N)c2c1)c1ccccn1 (racemic) [Example 99a, 3-Benzyl-6-(hydroxy(1-methyl-1H-imidazol-5-yl)(pyridin-2-yl)methyl)-2-(trifluoromethyl)quinoline-4-carbonitrile•TFA]",97 nM,93,20,–,–,–,–,–
"COc1nc2ccc(C(O)(c3sc(C)nc3C)c3cnnn3C)cc2c(Cl)c1Cc1ccc(-n2cccn2)cc1 (single isomer, unassigned) [Example 21b, (3-(4-(1H-Pyrazol-1-yl)benzyl)-4-chloro-2-methoxyquinolin-6-yl)(2,4-dimethylthiazol-5-yl)(1-methyl-1H-1,2,3-triazol-5-yl)methanol]",130 nM,99,22,–,–,–,–,–
"COc1nc2ccc(C(O)(c3sc(C)nc3C)c3cnnn3C)cc2cc1Cc1ccc(C(F)(F)F)cc1 (racemic) [Example 92a, (2,4-Dimethylthiazol-5-yl)(2-methoxy-3-(4-(trifluoromethyl)benzyl)quinolin-6-yl)(1-methyl-1H-1,2,3-triazol-5-yl)methanol]",79 nM,101,92,–,–,–,–,–
"Cn1cncc1C(O)(c1ccc(C(F)(F)F)nc1)c1ccc2nc(C(F)(F)F)c(Cc3ccccc3)c(C#N)c2c1 (single isomer, unassigned) [Example 108c, 3-Benzyl-6-(hydroxy(1-methyl-1H-imidazol-5-yl)(6-(trifluoromethyl)pyridin-3-yl)methyl)-2-(trifluoromethyl)quinoline-4-carbonitrile]",960 nM and ~1000 nM,–,46,83,–,–,–,–
3-((4-Chloro-6-((4-chlorophenyl)(hydroxy)(1-methyl-1H-imidazol-5-yl)methyl)-2-methoxyquinolin-3-yl)methyl)benzonitrile•TFA [Example 70],430 nM,–,120,–,–,–,94,–
"COc1nc2ccc(C(O)(c3cccnc3)c3cccc(F)c3)cc2c(Cl)c1Cc1ccc(-n2cccn2)cc1 (stereo not drawn) [Example 61, (3-(4-(1H-Pyrazol-1-yl)benzyl)4-chloro-2-methoxyquinolin-6-yl)(3-fluorophenyl)(pyridin-3-yl)methanol]",83 nM,99,12,–,–,–,–,–
"Cc1cc(C(O)(c2ccnc(C(F)(F)F)c2)c2cncn2C)cc2c(C#N)c(Cc3ccc(-n4cccn4)cc3)c(C#N)nc12 (single isomer, unassigned) [Example 83b, 3-(4-(1H-Pyrazol-1-yl)benzyl)-6-(hydroxy(1-methyl-1H-imidazol-5-yl)(2-(trifluoromethyl)pyridin-4-yl)methyl)-8-methylquinoline-2,4-dicarbonitrile]",13 nM,104,0.67,–,–,–,–,–
"COc1nc2ccc(C(O)(c3ccc(C)nc3C)c3cncn3C)cc2c(Cl)c1Cc1ccc(C(F)(F)F)cc1 (single isomer, unassigned) [Example 88b, (4-Chloro-2-methoxy-3-(4-(trifluoromethyl)benzyl)quinolin-6-yl)(2,6-dimethylpyridin-3-yl)(1-methyl-1H-imidazol-5-yl)methanol]",740 nM,95,480,–,–,–,–,–
"COc1nc2ccc(C(O)(c3ccc(F)cc3)c3cncn3C)cc2c(Cl)c1Cc1ccc(-n2cccn2)cc1 (single isomer, unassigned) [Example 160b, (3-(4-(1H-Pyrazol-1-yl)benzyl)-4-chloro-2-methoxyquinolin-6-yl)(4-fluorophenyl)(1-methyl-1H-imidazol-5-yl)methanol]",–,–,460,–,–,680,–,105
"Cn1cncc1C(O)(c1ccc(C(F)(F)F)nc1)c1ccc2nc(Cl)c(Cc3ccccc3)c(Cl)c2c1 (stereo not drawn) [Example 109, (3-Benzyl-2,4-dichloroquinolin-6-yl)(1-methyl-1H-imidazol-5-yl)(6-(trifluoromethyl)pyridin-3-yl)methanol•TFA]",~4000 nM,80,14,–,–,–,–,–
"COc1nc2ccc(C(O)(c3ccc(F)cc3)C3CCN(C(C)=O)CC3)cc2c(Cl)c1Cc1ccc(F)cc1 (single isomer, unassigned) [Example 51c, 1-(4-((4-Chloro-3-(4-fluorobenzyl)-2-methoxyquinolin-6-yl)(4-fluorophenyl)(hydroxy)methyl)piperidin-1-yl)ethanone]",> 6000 nM,–,200,4,–,–,–,–
"Cn1cc(-c2nc3ccc(C(O)(c4ccc(C(F)(F)F)nc4)c4cncn4C)cc3c(C#N)c2Cc2ccccc2)cn1 (single isomer, unassigned) [Example 112c, 3-Benzyl-6-(hydroxy(1-methyl-1H-imidazol-5-yl)(6-(trifluoromethyl)pyridin-3-yl)methyl)-2-(1-methyl-1H-pyrazol-4-yl)quinoline-4-carbonitrile]",~5000 nM,–,13000,71,–,–,–,–
"Cn1cncc1C(O)(c1ccc(C(F)(F)F)nc1)c1ccc2nc(N3CC(F)C3)c(Cc3ccc(-n4cccn4)cc3)c(Cl)c2c1 (single isomer, unassigned) [Example 147b, {4-Chloro-2-(3-fluoroazetidin-1-yl)-3-[4-(1H-pyrazol-1-yl)benzyl]quinolin-6-yl}(1-methyl-1H-imidazol-5-yl)[6-(trifluoromethyl)pyridin-3-yl]methanol]",–,–,60,–,–,210,–,99
"COc1nc2ccc(C(O)(c3ccc(C)nc3C)c3cncn3C)cc2c(Cl)c1Cc1ccc(C(F)(F)F)cc1 (single isomer, unassigned) [Example 88c, (4-Chloro-2-methoxy-3-(4-(trifluoromethyl)benzyl)quinolin-6-yl)(2,6-dimethylpyridin-3-yl)(1-methyl-1H-imidazol-5-yl)methanol]",10 nM,–,0.08,98,–,–,–,–
